# In patent publication US20240239861A1, “GLUCAGON-RECEPTOR SELECTIVE POLYPEPTIDES AND METHODS OF USE THEREOF” (i2O Therapeutics, Inc., priority 2016, published 2024):
# Where a SMILES comes first, the peptide text is derived from it. [ ]: non-standard residue; d: D form. Aib = CC(C)(N)C(=O)O
# How the values were obtained:
# human GLP-1R = human GLP-1R (Homo sapiens, UniProt P43220); assay: Peptide-receptor mediated cAMP accumulation (LANCE Ultra cAMP) in CHO-K1 cells transfected with human GLP-1R; format: cell-based; conditions: hGLP1 pEC50 (cAMP mean (n = 3): 11 point curve starting at 1 nM, Table 3)
# Sequence of human GLP-1R (P43220 24-463): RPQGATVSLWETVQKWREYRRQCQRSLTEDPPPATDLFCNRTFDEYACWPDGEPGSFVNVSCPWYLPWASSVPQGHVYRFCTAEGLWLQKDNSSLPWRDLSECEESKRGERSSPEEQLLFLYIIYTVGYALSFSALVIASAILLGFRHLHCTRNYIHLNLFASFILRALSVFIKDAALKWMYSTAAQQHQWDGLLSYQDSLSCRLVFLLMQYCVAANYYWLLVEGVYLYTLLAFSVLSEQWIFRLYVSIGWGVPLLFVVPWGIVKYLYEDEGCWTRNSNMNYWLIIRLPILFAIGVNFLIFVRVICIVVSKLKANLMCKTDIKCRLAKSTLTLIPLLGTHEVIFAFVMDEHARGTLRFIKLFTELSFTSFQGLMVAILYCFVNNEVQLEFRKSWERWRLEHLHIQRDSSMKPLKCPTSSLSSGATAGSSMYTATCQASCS
# human GCGR = human GCGR (Homo sapiens, UniProt P47871); assay: Peptide-receptor mediated cAMP accumulation (LANCE Ultra cAMP) in CHO-K1 cells transfected with human GCGR; format: cell-based; conditions: Table 3
# Sequence of human GCGR (P47871 26-477): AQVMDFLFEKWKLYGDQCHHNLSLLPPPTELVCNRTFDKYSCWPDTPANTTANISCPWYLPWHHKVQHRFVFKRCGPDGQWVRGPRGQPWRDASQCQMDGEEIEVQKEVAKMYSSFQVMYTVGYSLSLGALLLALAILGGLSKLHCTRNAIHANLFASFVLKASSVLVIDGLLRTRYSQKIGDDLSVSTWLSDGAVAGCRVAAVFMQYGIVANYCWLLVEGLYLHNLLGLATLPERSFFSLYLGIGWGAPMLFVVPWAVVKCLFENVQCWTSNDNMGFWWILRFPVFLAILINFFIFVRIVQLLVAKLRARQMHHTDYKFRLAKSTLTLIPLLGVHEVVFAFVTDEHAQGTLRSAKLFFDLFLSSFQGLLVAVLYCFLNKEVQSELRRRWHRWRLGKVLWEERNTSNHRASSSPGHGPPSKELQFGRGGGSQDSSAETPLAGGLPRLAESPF
SMILES,EC50 (human GLP-1R) [nM],EC50 (human GCGR) [nM]
CC(C)C[C@H](NC(=O)[C@H](Cc1ccc(O)cc1)NC(=O)[C@H](CCCCN)NC(=O)[C@H](CO)NC(=O)[C@H](Cc1ccc(O)cc1)NC(=O)[C@H](CC(=O)O)NC(=O)[C@H](CO)NC(=O)[C@@H](NC(=O)[C@H](Cc1ccccc1)NC(=O)[C@@H](NC(=O)CNC(=O)[C@H](Cc1c[nH]cn1)NC(=O)[C@@H](NC(=O)[C@@H](N)Cc1ccc(O)cc1)[C@@H](C)O)[C@@H](C)O)[C@@H](C)O)C(=O)N[C@@H](CC(=O)O)C(=O)NC(C)(C)C(=O)N[C@@H](C)C(=O)N[C@@H](CCCNC(=N)N)C(=O)N[C@@H](C)C(=O)N[C@@H](CCC(N)=O)C(=O)N[C@@H](CCC(=O)O)C(=O)N[C@@H](Cc1ccccc1)C(=O)N[C@H](C(=O)NC(C)(C)C(=O)N[C@@H](Cc1c[nH]c2ccccc12)C(=O)N[C@@H](CC(C)C)C(=O)N[C@@H](CCC(=O)O)C(=O)N[C@@H](CC(=O)O)C(=O)N[C@@H](CCC(=O)O)C(=O)N1CCC[C@H]1C(=O)N[C@@H](CO)C(=O)N[C@@H](CO)C(=O)NCC(=O)N[C@@H](C)C(=O)N1CCC[C@H]1C(=O)N1CCC[C@H]1C(=O)N1CCC[C@H]1C(=O)N[C@@H](CO)C(=O)O)C(C)C [Compound A64] (H-YTHGTFTSDYSKYLD[Aib]ARAQEFV[Aib]WLEDEPSSGAPPPS-OH; N-terminus assumed),> 1,0.02
CC(C)C[C@H](NC(=O)[C@H](Cc1ccc(O)cc1)NC(=O)[C@H](CCCCN)NC(=O)[C@H](CO)NC(=O)[C@H](Cc1ccc(O)cc1)NC(=O)[C@H](CC(=O)O)NC(=O)[C@H](CO)NC(=O)[C@@H](NC(=O)[C@H](Cc1ccccc1)NC(=O)[C@@H](NC(=O)CNC(=O)[C@H](Cc1c[nH]cn1)NC(=O)[C@H](CO)NC(=O)[C@@H](N)Cc1ccc(O)cc1)[C@@H](C)O)[C@@H](C)O)C(=O)N[C@@H](CC(=O)O)C(=O)NC(C)(C)C(=O)N[C@@H](C)C(=O)N[C@@H](CCCNC(=N)N)C(=O)N[C@@H](C)C(=O)N[C@@H](CCC(N)=O)C(=O)N[C@@H](CCC(=O)O)C(=O)N[C@@H](Cc1ccccc1)C(=O)N[C@H](C(=O)NC(C)(C)C(=O)N[C@@H](Cc1c[nH]c2ccccc12)C(=O)N[C@@H](CC(C)C)C(=O)N[C@@H](CCC(=O)O)C(=O)N[C@@H](CC(=O)O)C(=O)N[C@@H](CCC(=O)O)C(=O)N1CCC[C@H]1C(=O)N[C@@H](CCCCN)C(=O)N[C@@H](CO)C(=O)N[C@@H](CCCCN)C(=O)N[C@@H](CO)C(=O)N1CCC[C@H]1C(=O)N1CCC[C@H]1C(=O)N1CCC[C@H]1C(=O)N[C@@H](CO)C(N)=O)C(C)C [Compound A67] (H-YSHGTFTSDYSKYLD[Aib]ARAQEFV[Aib]WLEDEPKSKSPPPS-NH2; N-terminus assumed),> 1,0.0126
CC(C)C[C@H](NC(=O)[C@H](Cc1ccc(O)cc1)NC(=O)[C@H](CCCCN)NC(=O)[C@H](CO)NC(=O)[C@H](Cc1ccc(O)cc1)NC(=O)[C@H](CC(=O)O)NC(=O)[C@H](CO)NC(=O)[C@@H](NC(=O)[C@H](Cc1ccccc1)NC(=O)[C@@H](NC(=O)CNC(=O)[C@H](Cc1c[nH]cn1)NC(=O)[C@H](CO)NC(=O)[C@@H](N)Cc1ccc(O)cc1)[C@@H](C)O)[C@@H](C)O)C(=O)N[C@@H](CC(=O)O)C(=O)NC(C)(C)C(=O)N[C@@H](C)C(=O)N[C@@H](CCCNC(=N)N)C(=O)N[C@@H](C)C(=O)N[C@@H](CCC(N)=O)C(=O)N[C@@H](CCC(=O)O)C(=O)N[C@@H](Cc1ccccc1)C(=O)N[C@H](C(=O)NC(C)(C)C(=O)N[C@@H](Cc1c[nH]c2ccccc12)C(=O)N[C@@H](CC(C)C)C(=O)N[C@@H](CCC(=O)O)C(=O)N[C@@H](CC(=O)O)C(=O)N[C@@H](CCC(=O)O)C(=O)N1CCC[C@H]1C(=O)N[C@@H](CCCCN)C(=O)N[C@@H](CO)C(=O)N[C@@H](CCCCN)C(=O)N[C@@H](CCC(=O)O)C(=O)N1CCC[C@H]1C(=O)N1CCC[C@H]1C(=O)N1CCC[C@H]1C(=O)N[C@@H](CO)C(N)=O)C(C)C [Compound A68] (H-YSHGTFTSDYSKYLD[Aib]ARAQEFV[Aib]WLEDEPKSKEPPPS-NH2; N-terminus assumed),> 1,0.00501
CC(C)C[C@H](NC(=O)[C@H](Cc1ccc(O)cc1)NC(=O)[C@H](CCCCN)NC(=O)[C@H](CO)NC(=O)[C@H](Cc1ccc(O)cc1)NC(=O)[C@H](CC(=O)O)NC(=O)[C@H](CO)NC(=O)[C@@H](NC(=O)[C@H](Cc1ccccc1)NC(=O)[C@@H](NC(=O)CNC(=O)[C@H](Cc1c[nH]cn1)NC(=O)[C@H](CO)NC(=O)[C@@H](N)Cc1ccc(O)cc1)[C@@H](C)O)[C@@H](C)O)C(=O)N[C@@H](CC(=O)O)C(=O)N[C@@H](CO)C(=O)N[C@@H](C)C(=O)N[C@@H](CCCNC(=N)N)C(=O)N[C@@H](C)C(=O)N[C@@H](CCC(N)=O)C(=O)N[C@@H](CCC(=O)O)C(=O)N[C@@H](Cc1ccccc1)C(=O)N[C@H](C(=O)N[C@@H](CCCCN)C(=O)N[C@@H](Cc1c[nH]c2ccccc12)C(=O)N[C@@H](CC(C)C)C(=O)N[C@@H](CCC(=O)O)C(=O)N[C@@H](CC(=O)O)C(=O)N[C@@H](CCC(=O)O)C(=O)N1CCC[C@H]1C(=O)N[C@@H](CCCCN)C(=O)N[C@@H](CO)C(=O)N[C@@H](CCCCN)C(=O)N[C@@H](CCC(=O)O)C(=O)N1CCC[C@H]1C(=O)N1CCC[C@H]1C(=O)N1CCC[C@H]1C(=O)N[C@@H](CO)C(=O)O)C(C)C [Compound A69] (H-YSHGTFTSDYSKYLDSARAQEFVKWLEDEPKSKEPPPS-OH; N-terminus assumed),> 1,0.00158
CC(C)C[C@H](NC(=O)[C@H](Cc1ccc(O)cc1)NC(=O)[C@H](CCCCN)NC(=O)[C@H](CO)NC(=O)[C@H](Cc1ccc(O)cc1)NC(=O)[C@H](CC(=O)O)NC(=O)[C@H](CO)NC(=O)[C@@H](NC(=O)[C@H](Cc1ccccc1)NC(=O)[C@@H](NC(=O)CNC(=O)[C@H](Cc1c[nH]cn1)NC(=O)[C@H](CO)NC(=O)[C@@H](N)Cc1ccc(O)cc1)[C@@H](C)O)[C@@H](C)O)C(=O)N[C@@H](CC(=O)O)C(=O)N[C@@H](CO)C(=O)N[C@@H](C)C(=O)N[C@@H](CCCNC(=N)N)C(=O)N[C@@H](C)C(=O)N[C@@H](CCC(N)=O)C(=O)N[C@@H](CCC(=O)O)C(=O)N[C@@H](Cc1ccccc1)C(=O)N[C@H](C(=O)N[C@@H](CCCCN)C(=O)N[C@@H](Cc1c[nH]c2ccccc12)C(=O)N[C@@H](CC(C)C)C(=O)N[C@@H](CCC(=O)O)C(=O)N[C@@H](CC(=O)O)C(=O)N[C@@H](CCC(=O)O)C(=O)N1CCC[C@H]1C(=O)N[C@@H](CCCCN)C(=O)N[C@@H](CO)C(=O)N[C@@H](CCCCN)C(=O)N[C@@H](C)C(=O)N1CCC[C@H]1C(=O)N1CCC[C@H]1C(=O)N1CCC[C@H]1C(=O)N[C@@H](CO)C(=O)O)C(C)C [Compound A71] (H-YSHGTFTSDYSKYLDSARAQEFVKWLEDEPKSKAPPPS-OH; N-terminus assumed),> 1,0.002
CC(C)C[C@H](NC(=O)[C@H](Cc1ccc(O)cc1)NC(=O)[C@H](CCCCN)NC(=O)[C@H](CO)NC(=O)[C@H](Cc1ccc(O)cc1)NC(=O)[C@H](CC(=O)O)NC(=O)[C@H](CO)NC(=O)[C@@H](NC(=O)[C@H](Cc1ccccc1)NC(=O)[C@@H](NC(=O)CNC(=O)[C@H](Cc1c[nH]cn1)NC(=O)[C@H](CO)NC(=O)[C@@H](N)Cc1ccc(O)cc1)[C@@H](C)O)[C@@H](C)O)C(=O)N[C@@H](CC(=O)O)C(=O)N[C@@H](CO)C(=O)N[C@@H](C)C(=O)N[C@@H](CCCNC(=N)N)C(=O)N[C@@H](C)C(=O)N[C@@H](CCC(N)=O)C(=O)N[C@@H](CCC(=O)O)C(=O)N[C@@H](Cc1ccccc1)C(=O)N[C@H](C(=O)N[C@@H](CCCCN)C(=O)N[C@@H](Cc1c[nH]c2ccccc12)C(=O)N[C@@H](CC(C)C)C(=O)N[C@@H](CCC(=O)O)C(=O)N[C@@H](CC(=O)O)C(=O)N[C@@H](CCC(=O)O)C(=O)N1CCC[C@H]1C(=O)N[C@@H](CCCCN)C(=O)N[C@@H](CO)C(=O)N[C@@H](CCCCN)C(=O)N[C@@H](C)C(=O)N1CCC[C@H]1C(=O)N1CCC[C@H]1C(=O)N1CCC[C@H]1C(=O)N[C@@H](CO)C(N)=O)C(C)C [Compound A74] (H-YSHGTFTSDYSKYLDSARAQEFVKWLEDEPKSKAPPPS-NH2; N-terminus assumed),> 1,0.00251
CC(C)C[C@H](NC(=O)[C@H](Cc1ccc(O)cc1)NC(=O)[C@H](CCCCN)NC(=O)[C@H](CO)NC(=O)[C@H](Cc1ccc(O)cc1)NC(=O)[C@H](CC(=O)O)NC(=O)[C@H](CO)NC(=O)[C@@H](NC(=O)[C@H](Cc1ccccc1)NC(=O)[C@@H](NC(=O)CNC(=O)[C@H](Cc1c[nH]cn1)NC(=O)[C@H](CO)NC(=O)[C@@H](N)Cc1c[nH]c2ccccc12)[C@@H](C)O)[C@@H](C)O)C(=O)N[C@@H](CC(=O)O)C(=O)NC(C)(C)C(=O)N[C@@H](CCCCN)C(=O)N[C@@H](CCCNC(=N)N)C(=O)N[C@@H](C)C(=O)N[C@@H](CCC(N)=O)C(=O)N[C@@H](CCC(=O)O)C(=O)N[C@@H](Cc1ccccc1)C(=O)N[C@H](C(=O)NC(C)(C)C(=O)N[C@@H](Cc1c[nH]c2ccccc12)C(=O)N[C@@H](CC(C)C)C(=O)N[C@@H](CCC(=O)O)C(=O)N[C@@H](CC(=O)O)C(=O)N[C@@H](CCC(=O)O)C(=O)N1CCC[C@H]1C(=O)N[C@@H](CO)C(=O)N[C@@H](CO)C(=O)NCC(=O)N[C@@H](C)C(=O)N1CCC[C@H]1C(=O)N1CCC[C@H]1C(=O)N1CCC[C@H]1C(=O)N[C@@H](CO)C(=O)O)C(C)C [Compound A75] (H-WSHGTFTSDYSKYLD[Aib]KRAQEFV[Aib]WLEDEPSSGAPPPS-OH; N-terminus assumed),> 1,0.00501
